Experimental data published in patent US20210038577A1, “THIOREDOXIN REDUCTASE INHIBITORS FOR USE IN THE TREATMENT OF CANCER” (Cinda Pharma AB, priority 2018, published 2021).
Values joined by “and” are separate entries in the source; they are usually repeats but may differ in a detail not shown here. Equal values may be shown once.

Assays:
[1] = test system: TM00098 patient-derived xenografts (TNBC); assay: TM00098 patient derived TNBC xenografts in humanized Hu-CD34-NSG mice, tumor growth; type: in vivo
Description: FIG. 11: Primary tumor growth of TM00098 patient derived triple-negative breast cancer xenografts in humanized immunocompetent NSG mice (Hu-CD34-NSG) treated with OT-1096 or vehicle control. A) Humanized NSG mice (Hu-CD34-NSG) engrafted with CD34+ cells from donor 5243 and subsequently implanted with TNBC PDX TM00098. B) Humanized NSG mice (Hu-CD34-NSG) engrafted with CD34+ cells from donor 5252 and subsequently implanted with TNBC PDX TM00098. Female NSG mice were implanted with human CD34+ hematopoietic stem cells from multiple donors and the level of human CD45+ cells were measured in the peripheral blood 12 weeks post engraftment. Mice with >25% human CD45+ cells in the peripheral blood were determined to have a humanized immune system (Hu-CD34-NSG™) mice and were enrolled into the study. […] Tumor volume was measured using a digital caliper two times a week for the duration of the study. […] Statistical significance (p<0.05) was determined using a Two-way repeated measures ANOVA with Sidak's multiple comparison test.
Athymic nude mice were inoculated orthotopically with 5×10^6 MDA-MB-231 breast cancer cells into the mammary fat pad, and randomized for treatment when tumors reached an average volume of 80-120 mm^3 (N=12 in each group). […] Xenograft tumor volume was assessed using caliper measurements for 25 days. […] Xenograft tumor volume was assessed using caliper measurements for 25 days. […]

[2] = test system: immune cells isolated from human blood donors (neutrophils, PBMC, monocytes, CD8+, CD4+, Tregs); assay: Viability of isolated immune cells (MTT assay); type: cell-based; settings: 24 h, up to 33 μM
Procedure: Viability of neutrophils after treatment with OT-1096 for 24 h was assessed using donated blood from a healthy volunteer (HBsAg, HIV I&II negative), (Blood collection date: 1 Jun. 2017) where neutrophils were isolated using dextran sedimentation followed by hypotonic lysis and final isolation by Histopaque 1077 (Sigma-Aldrich). Viability was assessed using an MTT assay.
Viability of PBMC (peripheral blood mononuclear cells) after treatment with OT-1096 for 24 h was assessed using donated blood from two different donors. Donor-1, a healthy volunteer (HBsAg, HIV I&II negative), (Blood collection date: 1 Jun. 2017). […] Viability was assessed using an MTT assay.
Viability of monocytes after treatment with OT-1096 for 24 h was assessed using donated blood from a healthy volunteer (HBsAg, HIV I&II negative), (Blood collection date: 8 Jun. 2017) where monocytes was isolated by Histopaque 1077 (Sigma-Aldrich) followed by purification with MiniMACS system of ‘Miltenyi Biotec’ using CD14 microbeads (Cat No. 130-050-201). Viability was assessed using an MTT assay. […]
Viability of CD4+ cells after treatment with OT-1096 for 24 h was assessed using donated blood from a healthy volunteer (HBsAg, HIV I&II negative) where CD4+ cells were isolated by Histopaque 1077 (Sigma-Aldrich) followed by purification with MiniMACS system of ‘Miltenyi Biotec’ using CD4+ T Cell Isolation Reagent (Cat No. 130-096-533). […]

MDA-MB-231 cells = assay: CellQuanti-Blue cell viability assay, MDA-MB-231; type: cell-based, human
Procedure: Cell viability was then assessed using the CellQuanti assay. Relative cell viability was determined using DMSO only and blank controls.
Cells were plated at 2000 cells/well into 96-well plates in media containing 10% FBS. […] CellQuanti-Blue cell viability reagent was added to each well and the plates were subsequently incubated at 37° C. for 3 hours. Viability was determined fluorometrically using an Enspire plate reader […] excitation: 530 nm, emission: 590 nm. Viability was normalized to DMSO controls and blank wells with media.

| Structure (SMILES) | % TGI ([1]; 10 mg/kg three times a week intravenously, human immune cells from two separate donors, caliper) | mean tumor volume compared to vehicle ([1]; day 24 and 28 for CD34+ donor 5243, day 31 for donor 5252, p<0.05) | cytotoxicity in isolated immune cell populations [2] | sensitivity of MDA-MB-231 cells over time of exposure (MDA-MB-231 cells; 24, 48, 72 hours (FIG. 2A)) | potency relative to Iniparib in MDA-MB-231 cells (MDA-MB-231 cells; CellQuanti-Blue, 24, 48 or 72 hours) [fold] |
| --- | --- | --- | --- | --- | --- |
| CCCCCCCCS(=O)(=O)c1nc(OC)ccc1[N+](=O)[O-] [OT-1096, 6-methoxy-3-nitro-2-(octylsulfonyl)pyridine] | 45% and 55% | statistically significant | No (or low) cytotoxicity |  |  |
| COc1ccc([N+](=O)[O-])c(S(=O)(=O)c2ccc(Cl)cc2)n1 [OT-1000, 2-((4-Chlorophenyl)sulfonyl)-6-methoxy-3-nitropyridine] |  |  |  | increasingly sensitive | 100 |
